Measurements as given in US9149038B2, “4-amino-6-(heterocyclic)picolinates and 6-amino-2-(heterocyclic)pyrimidine-4-carboxylates and their use as herbicides” (Dow AgroSciences LLC, priority 2013, dated 2015).
Where two headings read alike, the source gives them in different places.

Test system: Wheat and Barley and weed species
Experiment: Post-Emergent Test III: postemergent herbicidal activity in wheat and barley, visual rating after 21 d and probit GR20/GR50/GR80/GR90 (Tables 9-13)
Assay type: in vivo
Details: for GR50 ALOMY / GR50 APESV / GR50 KCHSC / GR50 LOLSS / GR50 SETVI: growth reduction of 50%; for GR50 ALOMY / GR80 ALOMY / GR90 ALOMY / GR50 APESV / GR80 APESV / GR90 APESV / GR20 HORVS / GR50 KCHSC / GR80 KCHSC / GR90 KCHSC / GR50 LOLSS / GR80 LOLSS / GR90 LOLSS / GR50 SETVI / GR80 SETVI / GR90 SETVI / GR20 TRZAS: probit analysis; for GR80 ALOMY / GR80 APESV / GR80 KCHSC / GR80 LOLSS / GR80 SETVI: growth reduction of 80%; for GR90 ALOMY / GR90 APESV / GR90 KCHSC / GR90 LOLSS / GR90 SETVI: growth reduction of 90%; for GR20 HORVS / GR20 TRZAS: growth reduction of 20%; for pest or weed control at 17.5 g/ha / pest or weed control at 35 g/ha / pest or weed control at 70 g/ha: post-emergence, 504 h; for Visual Growth Reduction (%) 21 Days After Application KCHSC / GR50 KCHSC / GR80 KCHSC / GR90 KCHSC: KCHSC kochia (Kochia scoparia)
Text: Herbicidal evaluations were made visually on a scale of 0 to 100 where 0 represents no activity and 100 represents complete plant death.
Seeds of the desired test plant species were planted in Sun Gro MetroMix® 306 planting mixture, which typically has a pH of 6.0 to 6.8 and an organic matter content of about 30 percent, in plastic pots with a surface area of 103.2 square centimeters (cm^2). When required to ensure good germination and healthy plants, a fungicide treatment and/or other chemical or physical treatment was applied. The plants were grown for 7-36 days (d) in a greenhouse with an approximate 14 hour (h) photoperiod which was maintained at about 18° C. during the day and 17° C. during the night. Nutrients and water were added on a regular basis and supplemental lighting was provided with overhead metal halide 1000-Watt lamps as necessary. The plants were employed for testing when they reached the second or third true leaf stage.
A weighed amount, determined by the highest rate to be tested, of each test compound was placed in a 25 mL glass vial and was dissolved in 4 mL of a 97:3 v/v mixture of acetone and DMSO to obtain concentrated stock solutions. […] The concentrated stock solutions obtained were diluted with 20 mL of an aqueous mixture containing acetone, water, isopropyl alcohol, DMSO, Agri-Dex crop oil concentrate, and X-77 surfactant in a 48:39:10:1.5:1.5:0.02 v/v ratio to obtain spray solutions containing the highest application rates. Additional application rates were obtained by serial dilution of 12 mL of the high rate solution into a solution containing 2 mL of a 97:3 v/v mixture of acetone and DMSO and 10 mL of an aqueous mixture containing acetone, water, isopropyl alcohol, DMSO, Agri-Dex crop oil concentrate, and X-77 surfactant in a 48:39:10:1.5:1.5:0.02 v/v ratio to obtain ½×, ¼×, ⅛× and 1/16× rates of the high rate. Compound requirements are based upon a 12 mL application volume at a rate of 187 liters per hectare (L/ha). Formulated compounds were applied to the plant material with an overhead Mandel track sprayer equipped with 8002E nozzles calibrated to deliver 187 L/ha over an application area of 0.503 square meters at a spray height of 18 inches (43 cm) above the average plant canopy height. Control plants were sprayed in the same manner with the solvent blank.
The treated plants and control plants were placed in a greenhouse as described above and watered by subirrigation to prevent wash-off of the test compounds. After 21 d, the condition of the test plants as compared with that of the untreated plants was determined visually and scored on a scale of 0 to 100 percent where 0 corresponds to no injury and 100 corresponds to complete kill and are presented as indicated in Table 4.
By applying the well-accepted probit analysis as described by J. Berkson in Journal of the American Statistical Society, 48, 565 (1953) and by D. Finney in “Probit Analysis” Cambridge University Press (1952), herbicidal injury of a specific compound at various rates can be used to calculate GR20, GR50, GR80 and GR90 values, which are defined as growth reduction factors that correspond to the effective dose of herbicide required to provide plant growth reduction (GR) of 20 percent, 50 percent, 80 percent and 90 percent, respectively. Probit analysis was applied to data collected from multiple dose rates of individual compounds utilizing the procedures explained in the following examples. The data for some of the dose rates and analysis of all of the dose rates are captured in the following tables.

[1] = ALOMY black-grass (Alopecurus myosuroides)
[2] = APESV bentgrass (Apera spica-venti)
[3] = Hordeum vulgare, HORVS barley, spring (crop), 17.5 g ai/ha, read-out: Visual Growth Reduction (%) 21 Days After Application HORVS
[4] = Hordeum vulgare, HORVS barley, spring (crop), 35 g ai/ha, read-out: Visual Growth Reduction (%) 21 Days After Application HORVS
[5] = Hordeum vulgare, HORVS barley, spring (crop), 70 g ai/ha, read-out: Visual Growth Reduction (%) 21 Days After Application HORVS
[6] = SETVI green foxtail (Setaria viridis)
[7] = Triticum aestivum, TRZAS wheat, spring (crop), 17.5 g ai/ha, read-out: Visual Growth Reduction (%) 21 Days After Application TRZAS
[8] = Triticum aestivum, TRZAS wheat, spring (crop), 35 g ai/ha, read-out: Visual Growth Reduction (%) 21 Days After Application TRZAS
[9] = Triticum aestivum, TRZAS wheat, spring (crop), 70 g ai/ha, read-out: Visual Growth Reduction (%) 21 Days After Application TRZAS
[10] = ALOMY black-grass (Alopecurus myosuroides), 17.5 g ai/ha, read-out: Visual Growth Reduction (%) 21 Days After Application ALOMY
[11] = ALOMY black-grass (Alopecurus myosuroides), 35 g ai/ha, read-out: Visual Growth Reduction (%) 21 Days After Application ALOMY
[12] = ALOMY black-grass (Alopecurus myosuroides), 70 g ai/ha, read-out: Visual Growth Reduction (%) 21 Days After Application ALOMY
[13] = APESV bentgrass (Apera spica-venti), 17.5 g ai/ha, read-out: Visual Growth Reduction (%) 21 Days After Application APESV
[14] = APESV bentgrass (Apera spica-venti), 35 g ai/ha, read-out: Visual Growth Reduction (%) 21 Days After Application APESV
[15] = APESV bentgrass (Apera spica-venti), 70 g ai/ha, read-out: Visual Growth Reduction (%) 21 Days After Application APESV
[16] = LOLSS ryegrass, 17.5 g ai/ha, read-out: Visual Growth Reduction (%) 21 Days After Application LOLSS
[17] = LOLSS ryegrass, 35 g ai/ha, read-out: Visual Growth Reduction (%) 21 Days After Application LOLSS
[18] = LOLSS ryegrass, 70 g ai/ha, read-out: Visual Growth Reduction (%) 21 Days After Application LOLSS
[19] = SETVI green foxtail (Setaria viridis), 17.5 g ai/ha, read-out: Visual Growth Reduction (%) 21 Days After Application SETVI
[20] = SETVI green foxtail (Setaria viridis), 35 g ai/ha, read-out: Visual Growth Reduction (%) 21 Days After Application SETVI
[21] = SETVI green foxtail (Setaria viridis), 70 g ai/ha, read-out: Visual Growth Reduction (%) 21 Days After Application SETVI

SMILES: COC(=O)c1nc(-c2ccc3c(c2)OC(C)(C)O3)c(F)c(N)c1Cl [Compound 8]
- GR50 ALOMY [1]: >70 g ai/ha
- GR80 ALOMY [1]: >70 g ai/ha
- GR90 ALOMY [1]: >70 g ai/ha
- GR50 APESV [2]: 22 g ai/ha
- GR80 APESV [2]: 36 g ai/ha
- GR90 APESV [2]: 46 g ai/ha
- GR20 HORVS (HORVS barley, spring (crop)): 7 g ai/ha
- pest or weed control at 17.5 g/ha [3]: 30 to 44%
- pest or weed control at 35 g/ha [4]: 60 to 74%
- pest or weed control at 70 g/ha [5]: 60 to 74%
- Visual Growth Reduction (%) 21 Days After Application KCHSC (17.5 g ai/ha): E (45-59)
- Visual Growth Reduction (%) 21 Days After Application KCHSC (35 g ai/ha): D (60-74)
- Visual Growth Reduction (%) 21 Days After Application KCHSC (70 g ai/ha): D (60-74)
- GR50 KCHSC: 21 g ai/ha
- GR80 KCHSC: >70 g ai/ha
- GR90 KCHSC: >70 g ai/ha
- GR50 LOLSS (LOLSS ryegrass): >70 g ai/ha
- GR80 LOLSS (LOLSS ryegrass): >70 g ai/ha
- GR90 LOLSS (LOLSS ryegrass): >70 g ai/ha
- GR50 SETVI [6]: 11 g ai/ha
- GR80 SETVI [6]: 72 g ai/ha
- GR90 SETVI [6]: >70 g ai/ha
- GR20 TRZAS (TRZAS wheat, spring (crop)): 6 g ai/ha
- pest or weed control at 17.5 g/ha [7]: 30 to 44%
- pest or weed control at 35 g/ha [8]: 60 to 74%
- pest or weed control at 70 g/ha [9]: 60 to 74%
- pest or weed control at 17.5 g/ha [10]: 0 to 29%
- pest or weed control at 35 g/ha [11]: 30 to 44%
- pest or weed control at 70 g/ha [12]: 45 to 59%
- pest or weed control at 17.5 g/ha [13]: 0 to 29%
- pest or weed control at 35 g/ha [14]: 85 to 94%
- pest or weed control at 70 g/ha [15]: 85 to 94%
- pest or weed control at 17.5 g/ha [16]: 0 to 29%
- pest or weed control at 35 g/ha [17]: 0 to 29%
- pest or weed control at 70 g/ha [18]: 30 to 44%
- pest or weed control at 17.5 g/ha [19]: 60 to 74%
- pest or weed control at 35 g/ha [20]: 75 to 84%
- pest or weed control at 70 g/ha [21]: 75 to 84%

SMILES: COC(=O)c1nc(-c2cc3c(cc2F)OC(F)(F)O3)c(F)c(N)c1Cl [Compound 9]
- GR50 ALOMY [1]: 13 g ai/ha
- GR80 ALOMY [1]: 26 g ai/ha
- GR90 ALOMY [1]: 38 g ai/ha
- GR50 APESV [2]: 30 g ai/ha
- GR80 APESV [2]: 61 g ai/ha
- GR90 APESV [2]: 89 g ai/ha
- GR20 HORVS (HORVS barley, spring (crop)): 3 g ai/ha
- pest or weed control at 17.5 g/ha [3]: 60 to 74%
- pest or weed control at 35 g/ha [4]: 85 to 94%
- pest or weed control at 70 g/ha [5]: 85 to 94%
- Visual Growth Reduction (%) 21 Days After Application KCHSC (17.5 g ai/ha): G (0-29)
- Visual Growth Reduction (%) 21 Days After Application KCHSC (35 g ai/ha): G (0-29)
- Visual Growth Reduction (%) 21 Days After Application KCHSC (70 g ai/ha): G (0-29)
- GR50 KCHSC: >70 g ai/ha
- GR80 KCHSC: >70 g ai/ha
- GR90 KCHSC: >70 g ai/ha
- GR50 LOLSS (LOLSS ryegrass): 70 g ai/ha
- GR80 LOLSS (LOLSS ryegrass): >70 g ai/ha
- GR90 LOLSS (LOLSS ryegrass): >70 g ai/ha
- GR50 SETVI [6]: 21 g ai/ha
- GR80 SETVI [6]: 46 g ai/ha
- GR90 SETVI [6]: 71 g ai/ha
- GR20 TRZAS (TRZAS wheat, spring (crop)): 4 g ai/ha
- pest or weed control at 17.5 g/ha [7]: 60 to 74%
- pest or weed control at 35 g/ha [8]: 75 to 84%
- pest or weed control at 70 g/ha [9]: 75 to 84%
- pest or weed control at 17.5 g/ha [10]: 75 to 84%
- pest or weed control at 35 g/ha [11]: 85 to 94%
- pest or weed control at 70 g/ha [12]: 85 to 94%
- pest or weed control at 17.5 g/ha [13]: 0 to 29%
- pest or weed control at 35 g/ha [14]: 60 to 74%
- pest or weed control at 70 g/ha [15]: 75 to 84%
- pest or weed control at 17.5 g/ha [16]: 0 to 29%
- pest or weed control at 35 g/ha [17]: 0 to 29%
- pest or weed control at 70 g/ha [18]: 45 to 59%
- pest or weed control at 17.5 g/ha [19]: 45 to 59%
- pest or weed control at 35 g/ha [20]: 75 to 84%
- pest or weed control at 70 g/ha [21]: 85 to 94%
